Results from PubChem BioAssay (NCI).
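Cells were grown in 96-well plates and exposed to each compound for 48 hours at five concentrations; endpoints were interpolated linearly between bracketing concentrations, or set to the highest concentration if not reached. Here, GI50 denotes the concentration required for 50% inhibition of growth. TGI denotes the concentration required for complete inhibition of growth.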

Experiments:
Test in all cases: NCI tumour cell line growth inhibition, 48 h
[1] = system: XF 498 CNS
[2] = system: UACC-62 melanoma
[3] = system: LOX IMVI melanoma
[4] = system: SK-OV-3 ovarian
[5] = system: LXFL 529 NSCLC
[6] = system: HCC-2998 colon
[7] = system: DMS 273 small cell lung
[8] = system: SW-620 colon
[9] = system: MCF7 breast
[10] = system: MDA-MB-231 breast

O=C(c1nc2ccc(Cl)cc2[nH]c1=O)C(O)c1cccc([N+](=O)[O-])c1 (centres undefined)
TGI [1]: > 100 µM
TGI [2]: > 100 µM
TGI [3]: 40 µM
TGI [4]: > 100 µM
TGI [5]: > 100 µM
TGI [6]: > 100 µM
TGI [7]: > 100 µM

CC/C(=N/O)C(C)C(=O)CCC(=O)Nc1ccc(Cl)cc1 (centres undefined)
TGI [1]: > 100 µM
TGI [8]: > 100 µM
TGI [2]: > 100 µM
TGI [3]: > 100 µM
TGI [4]: > 100 µM
TGI [5]: > 100 µM
TGI [6]: > 100 µM
TGI [7]: > 100 µM

OCC(O)C(OC1OC(CO)C(O)C(O)C1O)c1nn(-c2ccc(Cl)cc2)c2nc3cc(Cl)c(Cl)cc3nc12 (centres undefined)
TGI [1]: > 100 µM
TGI [2]: > 100 µM
TGI [3]: > 100 µM
TGI [4]: > 100 µM
TGI [5]: > 100 µM
TGI [6]: > 100 µM

Cc1cccc(/C=N/N=C(\N)NO)n1
TGI [1]: > 100 µM
TGI [8]: > 100 µM
TGI [2]: 8.83 µM
TGI [3]: 52.8 µM
TGI [4]: > 100 µM
TGI [5]: 53.1 µM
TGI [6]: > 100 µM
TGI [7]: > 100 µM

O=C(CC(=O)c1cccc2ccccc12)C(=O)Nc1nccs1
TGI [8]: > 100 µM
TGI [2]: > 100 µM
TGI [3]: > 100 µM
TGI [4]: > 100 µM
TGI [5]: > 100 µM
TGI [6]: > 100 µM
TGI [7]: > 100 µM

CCOc1ccc2c(c1)[n+]([O-])c(-c1ccc([N+](=O)[O-])cc1)c(N)[n+]2[O-]
TGI [8]: > 100 µM
TGI [4]: > 100 µM
TGI [5]: > 100 µM
TGI [7]: > 100 µM

CN(C)C(=S)/N=C(\N)N(C)C
TGI [1]: > 100 µM
TGI [8]: > 100 µM
TGI [2]: > 100 µM
TGI [3]: > 100 µM
TGI [4]: > 100 µM
TGI [5]: > 100 µM
TGI [6]: > 100 µM
TGI [7]: > 100 µM

CC(C)CCCC(C)[C@H]1CCC2C3CC=C4C[C@@H](OC(=O)CC(CC(=O)[O-])C(=O)[O-])CC[C@]4(C)C3CC[C@@]21C.N.N.[Pt+4] (some centres undefined)
GI50 [8]: > 100 µM
TGI [8]: > 100 µM
GI50 [2]: > 100 µM
TGI [2]: > 100 µM
GI50 [3]: > 100 µM
TGI [3]: > 100 µM
GI50 [7]: > 100 µM
TGI [7]: > 100 µM

CNC(=O)NCCCCC(NC(=O)OCc1ccccc1)C(=O)OCc1ccccc1 (centres undefined)
TGI [1]: 33.2 µM
TGI [8]: > 100 µM
TGI [2]: 47.9 µM
TGI [3]: 31.3 µM
TGI [4]: > 100 µM
TGI [5]: > 100 µM
TGI [6]: 36.9 µM
TGI [7]: > 100 µM

COC(=O)c1ccc(N/C=C(/C#N)c2ccsc2)cc1
TGI [8]: 54.7 µM
TGI [2]: 60.5 µM
TGI [5]: 37.5 µM
TGI [6]: 44.5 µM
TGI [7]: 37.4 µM

CC(C)=CC1(C)/C(=N\O)C(C)(CC(C)C)C(=O)N1O (centres undefined)
TGI [1]: > 100 µM
TGI [8]: > 100 µM
TGI [2]: > 100 µM
TGI [3]: > 100 µM
TGI [4]: > 100 µM
TGI [5]: > 100 µM
TGI [6]: > 100 µM
TGI [7]: > 100 µM

O=C(Cc1ccccc1)N/N=C(/c1nc2ccc([N+](=O)[O-])cc2[nH]c1=O)C(O)c1ccco1 (centres undefined)
TGI [1]: > 100 µM
TGI [8]: > 100 µM
TGI [2]: > 100 µM
TGI [3]: > 100 µM
TGI [4]: > 100 µM
TGI [5]: > 100 µM
TGI [6]: > 100 µM

CCOC(=O)C1=C(Nc2cccc3ccccc23)OCC1=O
TGI [1]: > 100 µM
TGI [8]: > 100 µM
TGI [2]: > 100 µM
TGI [4]: > 100 µM
TGI [5]: > 100 µM
TGI [6]: > 100 µM
TGI [7]: > 100 µM

CC(C)(C)c1cc(C#N)c2c(c1)C(=O)OC2(c1ccccc1)c1ccccc1C#N (centres undefined)
TGI [1]: > 100 µM
TGI [8]: > 100 µM
TGI [2]: > 100 µM
TGI [3]: > 100 µM
TGI [4]: > 100 µM
TGI [5]: > 100 µM
TGI [7]: > 100 µM

CC(C)(C)[Si](C)(C)O/N=C\c1cccc(O[Si](C)(C)C(C)(C)C)c1
TGI [1]: 32.7 µM
TGI [8]: 34.7 µM
TGI [2]: 32.4 µM
TGI [3]: 35.5 µM
TGI [4]: 36.2 µM
TGI [5]: 29.1 µM
TGI [6]: 34.7 µM
TGI [7]: 32.6 µM

COC(=O)CCC(=O)Nc1cc(C)ccc1C
TGI [1]: > 100 µM
TGI [8]: > 100 µM
TGI [2]: > 100 µM
TGI [3]: > 100 µM
TGI [4]: > 100 µM
TGI [5]: > 100 µM
TGI [6]: > 100 µM
TGI [7]: > 100 µM

CC1=C(C(=O)NCc2ccccc2)C(c2ccc(N(C)C)cc2)C(C(=O)NCc2ccccc2)=C(C)N1
TGI [1]: > 100 µM
TGI [8]: > 100 µM
TGI [2]: > 100 µM
TGI [4]: > 100 µM
TGI [5]: > 100 µM
TGI [6]: > 100 µM
TGI [7]: > 100 µM

CCCCCCCCCCCc1cc(=O)c2c(O)cccc2o1
TGI [1]: > 100 µM
TGI [8]: > 100 µM
TGI [2]: > 100 µM
TGI [3]: > 100 µM
TGI [4]: > 100 µM
TGI [5]: > 100 µM
TGI [6]: > 100 µM
TGI [7]: > 100 µM

COc1ccc(C2C(C(=O)O)=C(CO)Oc3cc4c(cc32)OCO4)c(OC)c1 (centres undefined)
TGI [1]: > 100 µM
TGI [8]: > 100 µM
TGI [2]: > 100 µM
TGI [3]: > 100 µM
TGI [4]: > 100 µM
TGI [7]: > 100 µM

N#CC1=C(N)Oc2c(ccc3cccnc23)C1c1ccccc1 (centres undefined)
GI50 [9]: 0.406 µM
TGI [9]: 58.1 µM
GI50 [10]: 4.88 µM
TGI [10]: > 100 µM
TGI [1]: 77.7 µM
TGI [8]: > 100 µM
TGI [2]: 24.6 µM
TGI [3]: > 100 µM
TGI [4]: > 100 µM
TGI [5]: > 100 µM
TGI [6]: > 100 µM
TGI [7]: > 100 µM

O=c1c2cc(Br)ccc2n(C2OC(CO)C(O)C(O)C2O)c(=S)n1-c1ccccc1 (centres undefined)
TGI [1]: > 100 µM
TGI [8]: > 100 µM
TGI [3]: > 100 µM
TGI [5]: > 100 µM
TGI [6]: > 100 µM

[N-]=[N+]=Nc1nnc(CCCCc2nnc(N=[N+]=[N-])o2)o1
TGI [1]: > 100 µM
TGI [8]: > 100 µM
TGI [2]: > 100 µM
TGI [3]: > 100 µM
TGI [4]: > 100 µM
TGI [5]: > 100 µM
TGI [6]: > 100 µM

C=CC(=O)OCCCS(=O)(=O)[O-].C=CC(=O)OCCCS(=O)(=O)[O-].NC1CCCCC1N.[Pt+4]
GI50 [8]: > 25 µM
TGI [8]: > 25 µM
GI50 [2]: > 25 µM
TGI [2]: > 25 µM
GI50 [3]: > 25 µM
TGI [3]: > 25 µM
GI50 [4]: > 25 µM
TGI [4]: > 25 µM
GI50 [5]: > 25 µM
TGI [5]: > 25 µM
GI50 [6]: > 25 µM
TGI [6]: > 25 µM
GI50 [7]: > 25 µM
TGI [7]: > 25 µM

C=CCC(O)c1cc(OC)ccc1OC (centres undefined)
TGI [1]: > 100 µM
TGI [8]: > 100 µM
TGI [2]: > 100 µM
TGI [3]: > 100 µM
TGI [4]: > 100 µM
TGI [5]: > 100 µM
TGI [6]: > 100 µM
TGI [7]: > 100 µM

O=C(/C=C/c1ccco1)N1CCN(Cc2ccccc2)CC1
TGI [1]: > 100 µM
TGI [8]: > 100 µM
TGI [2]: > 100 µM
TGI [3]: > 100 µM
TGI [4]: > 100 µM
TGI [5]: > 100 µM
TGI [6]: > 100 µM
TGI [7]: > 100 µM
